The target in experiment [1] is ERE dsDNA (estrogen response element). Description: Thiazole orange total fluorescence titration with unlabeled DNA. The conditions noted are these: TO fluorescence ex 510 nm, em 535 nm; read-out: binding constant (dissociation constant). The method, then: (§1) Fluorescence Measurements. Steady state fluorescence anisotropy measurements were carried out in 20 mM Tris (pH 7.9), 30 mM NaCl, 20 mM KCl, 1 mM MgCl2, and 5% glycerol. […] DNA samples used were either the non-labeled sequences shown in FIG. 2 or a fluorescein labeled duplex with a sequence matching GRE2 (FIG. 2).
(§2) For non-labeled DNA titrations (measuring the fluorescence from thiazole orange), the excitation wavelength was 510 nm and the emission was recorded at 535 nm with a 1.0 nm slit width. Glass cuvettes were used with a 0.3 cm path length. Titrations were performed using a constant concentration of unconjugated thiazole orange (TO) or TO-ZF and titrated with DNA as indicated.
(§3) Total fluorescence data were collected in parallel to the anisotropy measurements and were calculated from raw data as the fluorescence intensity in the vertical plane plus two times the fluorescence intensity of the horizontal plane, (TF=Ivv+2Ivh). These values were used to determine the percent of the maximum fluorescence for each point along the titration and fit to equation 2. [formula]
(§4) In equation 2, f corresponds to the fraction of TO-ZF conjugate bound at a given concentration of DNA. The concentration given as [TO(ZF)]T corresponds to either the unconjugated thiazole orange or the TOZF conjugate as indicated and [GRE]T is the total concentration of GRE binding sites. The parameter of the fit was the dissociation constant (Kd).
(§5) Titrations of the TO fluorescence upon binding of TO-ZF to unlabeled DNA were measured for the dsDNA sequences shown in FIG. 2. TO fluorescence was excited at 510 nm and collected at 535 nm. The GRE1 DNA sequence contains the same binding site as does the GRE2 DNA sequence used above, however, the GRE3 sequence contains a single mutation of the guanine in the native GRE target sequence (5′-TGTTCT-3′) to an adenine. The GRE2 and GRE3 sequences were generated for use in the photocleavage measurements described below. Finally, the GRE4 and ERE recognition sequences are from the non-specific GRE halfsite and the estrogen response element (ERE), respectively. M. A. L. Eriksson, J. Molec. Biol. 253:453-472 (1995). These are used in conjunction with the other sequences to determine the sensitivity of this probe. The DNA is not fluorescently labeled in these measurements. Therefore, the fluorescence is exclusively from thiazole orange molecules intercalated into dsDNA.
(§6) Fitting the binding curves to a two-state binding model (see Materials and Methods) results in a dissociation constant of 25 nM for GRE1 and GRE2, which contain the native GRE. Titrations of the modified GRE sequences and the ERE sequence yielded binding constants of 57 nM, 220 nM and 810 nM for the TO-ZF conjugate bound to GRE3, GRE4, and ERE, respectively.

The target in experiment [2] is GRE1 dsDNA (native GRE target sequence). The description is as above. The conditions noted are these: TO fluorescence ex 510 nm, em 535 nm; read-out: dissociation constant, two-state binding model. As for the experimental part:
as §1, §2, §3, §4, §5, §6

Experiment [3] addresses GRE2 dsDNA (native GRE target sequence). Described as above. The conditions noted are these: TO fluorescence ex 510 nm, em 535 nm; read-out: dissociation constant, two-state binding model. As for the experimental part:
as §1, §2, §3, §4, §5, §6

Experiment [4] concerns the target GRE3 dsDNA (guanine of GRE changed to adenine). The experiment is described as above. The settings on record: TO fluorescence ex 510 nm, em 535 nm; read-out: binding constant (dissociation constant). The method, then:
as §1, §2, §3, §4, §5, §6

Experiment [5] addresses GRE4 dsDNA (non-specific GRE halfsite). The experiment is described as above. The settings on record: TO fluorescence ex 510 nm, em 535 nm; read-out: binding constant (dissociation constant). The method, then:
as §1, §2, §3, §4, §5, §6

Experiment [6] deals with GRE2 dsDNA. Nature of the experiment: Photocleavage at 514 nm, intensity dependence of guanine oxidation. In kind it is biochemical. The settings on record: 160 nM duplex DNA, 200 nM TO-ZF, piperidine. As for the experimental part: The purified DNA strands shown in FIG. 2 were 5′^-32P-end-labeled using T4 polynucleotide kinase and purified as described above. Oxygen removal was performed by bubbling argon through the samples. Irradiations were performed on […] samples in a 1.0 mL glass cuvette fit with a septum using an argon-ion laser at 514 nm with a power of 300 mW/cm^2. After irradiation, samples were divided in half and one portion treated with piperidine, the other immediately frozen. Piperidine treatment consisted of adding an equal volume of freshly prepared 20% piperidine in water to the sample followed by heating at 90° C. for 30 minutes. Both the treated and untreated fractions were dried under vacuum. To each dried sample was added […] of 80% formamide in water. The products of the photocleavage experiments were analyzed on a 15% polyacrylamide (19:1) vertical sequencing gel with dimensions 21 cm×40 cm×0.4 mm. […] Gels were dried and exposed to a phosphorimaging screen for 4 hours and analyzed on a Molecular Dynamics Storm-840 gel scanner in phosphorimaging mode.
Photocleavage of TO-ZF conjugate. […] After irradiation of TO-ZF bound to dsDNA in Tris buffer solution at 514 nm (514 nm is in the main band of the absorbance spectrum of intercalated thiazole orange as shown in FIG. 3), the photo-products were denatured and separated using denaturing polyacrylamide gel electrophoresis (PAGE). […]

Consider 1 substance from patent US6348317B1, “Fluorescent and DNA cleavage properties of peptide/dye conjugates” (The Arizona Board of Regents, priority 1999, dated 2002).

pKd: −log10 of the molar value.

As for “TO-ZF: 29 amino acid single zinc finger from residues 438-465 of glucocorticoid receptor, thiazole orange coupled to a lysine ε-amine”, the pKd in experiment [1] is 6.09; in experiment [2] it was 7.60; in experiment [3], 7.60; in experiment [4] it was 7.24; in experiment [5] it was 6.66. Further, the “preferential site of photocleavage” value in experiment [6] is given as “Preferential cleavage is observed at the 5′-G of the GG sequence”.
